Data: paper PMC7190724, “Improved GPCR ligands from nanobody tethering” (Nature Communications, 2020)
Read-outs that look alike come from different tables or passages of the source. Where a SMILES comes first, the peptide text is derived from it. [ ]: non-standard residue; d: D form. Aib = CC(C)(N)C(=O)O

Key:
PTHR1GFP [1] = molecular target: T1, PTHR1GFP (Homo sapiens, UniProt Q03431); test: Flow cytometry binding of VHH-Alexafluor647 to HEK293 expressing PTHR1GFP; conditions: 100 nM VHH-Alexafluor647, on ice
T1 sequence (Q03431 27-593): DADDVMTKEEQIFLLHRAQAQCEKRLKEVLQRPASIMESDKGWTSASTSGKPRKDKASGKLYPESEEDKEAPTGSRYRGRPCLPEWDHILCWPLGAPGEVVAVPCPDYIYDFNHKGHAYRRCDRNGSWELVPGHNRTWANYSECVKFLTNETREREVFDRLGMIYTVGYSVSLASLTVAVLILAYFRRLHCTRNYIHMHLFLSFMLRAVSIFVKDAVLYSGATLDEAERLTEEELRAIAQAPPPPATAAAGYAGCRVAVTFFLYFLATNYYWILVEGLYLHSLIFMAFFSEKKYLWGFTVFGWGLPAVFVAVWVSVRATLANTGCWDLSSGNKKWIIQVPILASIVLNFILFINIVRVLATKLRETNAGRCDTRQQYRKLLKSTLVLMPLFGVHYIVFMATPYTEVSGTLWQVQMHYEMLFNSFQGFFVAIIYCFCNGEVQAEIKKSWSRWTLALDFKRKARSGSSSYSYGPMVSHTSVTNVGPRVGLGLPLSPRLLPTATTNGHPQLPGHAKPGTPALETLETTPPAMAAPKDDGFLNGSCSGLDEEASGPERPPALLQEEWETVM
Description: (§1) Suspensions of cells in PBS were stained for 1 h on ice in the presence of indicated concentrations of VHH probes functionalized with Alexafluor647. Cells were pelleted by centrifugation and washed with PBS prior to analysis by flow cytometry (BD Accuri C6). To select intact cells gating was performed on forward scatter/side scatter profiles for analysis (see Supplementary Fig. 4 for an example of the gating strategy). Data were analyzed using FlowJo version 7.6. The median fluorescent intensity (MFI) of stained cells was used to generate VHH binding dose response curves (Supplementary Fig. 4).
Supplementary Figure 1. […] HEK293 cell lines in suspension were incubated on ice with 100 nM VHH sortagged with Alexafluor647, pelleted by centrifugation, washed and analyzed. […]
PTHR1GFP. This weak staining is likely related to the inability of VHHGFP to tightly bind the pH-sensitive GFP variant known as pHluorin2 engrafted into the receptor(ref. 19, main text). c) HEK293 cells stably expressing PTHR1-GFP were treated with varied doses of the indicated peptides or conjugates and activation was assessed by measuring luminescence from a cAMP-activated luciferase variant. […]
Supplementary Figure 4. […] Cells were centrifuged, washed, and analyzed by flow cytometry via gating of intact cells (live gate) based on forward scatter/side scatter profiles (panel a). […]

PTHR1YFPΔECD [2] = molecular target: T2, PTHR1YFPΔECD (Homo sapiens, UniProt Q03431); test: Flow cytometry binding of VHH-Alexafluor647 to HEK293 expressing PTHR1YFPΔECD
T2 construct: expressed in transfected cells; host or cells: HEK293 (clone GD5Y) with GloSensor cAMP reporter
T2 sequence (Q03431 with tags, fused parts or gaps limits assumed): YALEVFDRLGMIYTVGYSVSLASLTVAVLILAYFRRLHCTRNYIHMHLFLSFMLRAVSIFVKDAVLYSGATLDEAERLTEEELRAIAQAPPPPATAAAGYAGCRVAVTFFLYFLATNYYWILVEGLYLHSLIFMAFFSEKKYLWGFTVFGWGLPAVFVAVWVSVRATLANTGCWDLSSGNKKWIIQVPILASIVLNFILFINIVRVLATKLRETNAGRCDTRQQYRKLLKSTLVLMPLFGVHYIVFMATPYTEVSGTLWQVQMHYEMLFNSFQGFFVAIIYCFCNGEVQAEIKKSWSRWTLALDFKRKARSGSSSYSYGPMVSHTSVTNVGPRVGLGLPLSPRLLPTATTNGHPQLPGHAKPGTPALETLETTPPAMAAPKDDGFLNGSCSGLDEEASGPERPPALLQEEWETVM
Description: as §1
Supplementary Figure 4. Assessment of VHH binding to PTHR1 variants by flow cytometry. Cells dislodged from tissue culture plates using trypsinization were incubated with varied concentrations of VHHs sortagged with AlexaFluor647 on ice for 1 h. Cells were centrifuged, washed, and analyzed by flow cytometry via gating of intact cells (live gate) based on forward scatter/side scatter profiles (panel a). (b) Data points represent median fluorescent intensity values ( individual data points shown, n = 2 independent replicates per condition). Connecting curves are the result of fitting a sigmoidal dose - response model to the data points. Precise estimates for VHH PTHR binding cannot be provided since the […]
(1 picture or pasted object on this page, not shown here)

PTHR1_6E = molecular target: T3, PTHR1_6E (Homo sapiens, UniProt Q03431); test: cAMP response (GloSensor luminescence), HEK293 stably expressing PTHR1_6E; assay type: cell-based; conditions: peak GloSensor luminescence; mean ± SD, ≥3 independent experiments; read-out: EC50, cAMP induction
T3 sequence (Q03431 106-593 limits assumed): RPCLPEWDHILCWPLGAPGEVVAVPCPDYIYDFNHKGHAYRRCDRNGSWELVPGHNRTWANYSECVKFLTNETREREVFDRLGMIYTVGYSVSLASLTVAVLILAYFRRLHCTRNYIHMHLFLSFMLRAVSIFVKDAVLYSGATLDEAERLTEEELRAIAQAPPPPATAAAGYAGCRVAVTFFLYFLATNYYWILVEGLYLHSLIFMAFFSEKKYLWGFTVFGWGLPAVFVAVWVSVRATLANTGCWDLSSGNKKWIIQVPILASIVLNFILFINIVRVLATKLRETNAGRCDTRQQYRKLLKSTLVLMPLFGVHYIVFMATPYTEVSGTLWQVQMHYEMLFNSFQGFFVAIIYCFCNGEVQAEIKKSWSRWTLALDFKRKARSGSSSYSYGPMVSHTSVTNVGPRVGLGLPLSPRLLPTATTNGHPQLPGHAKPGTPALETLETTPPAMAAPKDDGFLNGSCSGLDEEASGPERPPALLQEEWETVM
Description: (§2) A HEK293 cell line stably expressing β-Arrestin2-YFP (GBR24) was constructed similarly. PTHR1_6E was produced using the Q5 Site-directed mutagenesis kit (NEB) and used to prepare a stably transfected HEK293-derived cell line. Annotated sequence data for all PTHR1 constructs are found in Supplementary Fig. 19. Aligned sequences of VHHs used in this study are shown in Supplementary Fig. 20.
(§3) These assays were performed as previously described. […] Confluent monolayers of cells were pre-incubated with CO2 independent medium containing D-luciferin (0.5 mM) at 37 °C until a stable baseline level of luminescence was established (20 min). Varying concentrations of ligands were then added, and the time course of luminescence response was recorded using BioTek plate reader.
(§4) Data were processed using Microsoft Excel and GraphPad Prism 6. Data from cAMP dose–response assays were analyzed using a sigmoidal dose–response model with variable slope. Data sets were statistically compared by using Student’s t test (two-tailed) assuming unequal variances for the two sets.

hPTHR1 = molecular target: T4, hPTHR1 (Homo sapiens, UniProt Q03431); test: cAMP response (GloSensor luminescence), HEK293 stably expressing human PTHR1 (GP2.3); assay type: cell-based; conditions: peak GloSensor luminescence 12–16 min after ligand; mean ± SD, ≥3 independent experiments; highest conc. 100 nM conjugates, 10,000 nM peptides; read-out: EC50, cAMP induction
T4 construct: expressed in transfected cells; host or cells: HEK293 (clone GP2.3) with GloSensor cAMP reporter
T4 sequence (Q03431 27-593): T1 sequence (Q03431 27-593)
Description: as §2, §3, §4

PTHR1GFP [3] = molecular target: T1, PTHR1GFP; test: cAMP response (GloSensor luminescence), HEK293 stably expressing PTHR1GFP (GPG10); assay type: cell-based
Description: (§5) These assays were performed as previously described. Briefly, HEK-293-derived cell lines that stably express the Glosensor cAMP reporter (Promega Corp.)[30] and PTHR1, a PTHR1 variant, or PTHR2 were seeded into white sided 96-well plates (50,000 cells/well) and grown to confluency. Confluent monolayers of cells were pre-incubated with CO2 independent medium containing D-luciferin (0.5 mM) at 37 °C until a stable baseline level of luminescence was established (20 min). Varying concentrations of ligands were then added, and the time course of luminescence response was recorded using BioTek plate reader. The maximal luminescence response (observed 12–16 min after ligand addition) was used to construct dose-response data sets (Table 1, Supplementary Fig. 6).
as §4
Supplementary Figure 1. […]
GFP variant known as pHluorin2 engrafted into the receptor(ref. 19, main text). c) HEK293 cells stably expressing PTHR1-GFP were treated with varied doses of the indicated peptides or conjugates and activation was assessed by measuring luminescence from a cAMP-activated luciferase variant. Values listed represent EC50 values (mean ± SD). Each value comes from ≥ 3 independent experiments. Further details, including the number of replicates for each measurement and the normalized maximal responses induced, are reported in Supplementary Table 1. […]
than 5% of the maximal response induced for that cell line.
Peptide or conjugate PTHR1GFP

PTHR1YFPΔECD [4] = molecular target: T2, PTHR1YFPΔECD; test: cAMP response (GloSensor luminescence), HEK293 stably expressing PTHR1YFPΔECD (GD5Y); assay type: cell-based; conditions: peak GloSensor luminescence; mean ± SD, ≥3 independent experiments; read-out: EC50, cAMP induction
Description: as §2, §3, §4

hPTHR2 = molecular target: T5, hPTHR2 (Homo sapiens, UniProt P49190); test: cAMP response (GloSensor luminescence), HEK293 stably expressing hPTHR2; assay type: cell-based; conditions: peak GloSensor luminescence; mean ± SD, n = 3-4; read-out: EC50, cAMP induction
T5 construct: expressed in transfected cells
T5 sequence (P49190 25-550): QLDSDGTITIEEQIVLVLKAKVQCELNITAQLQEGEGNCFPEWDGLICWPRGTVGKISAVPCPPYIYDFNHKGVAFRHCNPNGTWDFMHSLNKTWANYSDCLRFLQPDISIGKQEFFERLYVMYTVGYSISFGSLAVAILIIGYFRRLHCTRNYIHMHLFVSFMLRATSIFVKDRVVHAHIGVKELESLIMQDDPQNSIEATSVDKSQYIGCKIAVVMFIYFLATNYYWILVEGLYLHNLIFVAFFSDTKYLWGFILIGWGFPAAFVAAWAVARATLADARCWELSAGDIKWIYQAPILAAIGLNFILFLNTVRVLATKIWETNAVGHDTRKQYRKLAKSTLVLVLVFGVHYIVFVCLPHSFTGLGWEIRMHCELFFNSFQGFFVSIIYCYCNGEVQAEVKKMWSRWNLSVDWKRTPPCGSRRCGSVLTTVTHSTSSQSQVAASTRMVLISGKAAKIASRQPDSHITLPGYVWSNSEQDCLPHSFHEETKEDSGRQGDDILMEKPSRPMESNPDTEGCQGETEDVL
Description: as §5, §4

| Molecule | staining of cells (PTHR1GFP [1]) | staining of cells (PTHR1YFPΔECD [2]; 100 nM VHH-Alexafluor647, on ice) | half-maximal staining concentration (PTHR1YFPΔECD [2]; flow cytometry MFI, VHH-Alexafluor647, 1 h on ice) [nM] | EC50 (PTHR1_6E) [nM] | EC50 (hPTHR1) [nM] | EC50 (PTHR1GFP [3]; peak GloSensor luminescence, mean ± SD, ≥3 independent experiments, read-out: EC50, cAMP induction) [nM] | EC50 (PTHR1YFPΔECD [4]) [nM] | EC50 (hPTHR2) [nM] | EC50 (PTHR1GFP [3]) [nM] |
| --- | --- | --- | --- | --- | --- | --- | --- | --- | --- |
| VHHGFP: nanobody recognizing green or yellow fluorescent proteins (named VHH-enhancer) | only weakly stained | stained | < 10 |  |  |  |  |  |  |
| CC[C@H](C)[C@H](NC(=O)[C@H](CCC(=O)O)NC(=O)C(C)(C)NC(=O)[C@@H](NC(=O)[C@H](C)N)C(C)C)C(=O)N[C@@H](CCC(N)=O)C(=O)N[C@@H](CC(C)C)C(=O)N[C@@H](CCSC)C(=O)N[C@@H](Cc1c[nH]cn1)C(=O)N[C@@H](CCC(N)=O)C(=O)N[C@@H](CS)C(N)=O [PTH(1-10)] (H-AV[Aib]EIQLMHQC-NH2) |  |  |  | 5080 | 3120 | 2550 ± 653 | 3840 |  |  |
| CC[C@H](C)[C@H](NC(=O)[C@H](CCC(=O)O)NC(=O)C(C)(C)NC(=O)[C@@H](NC(=O)[C@H](C)N)C(C)C)C(=O)N[C@@H](CCC(N)=O)C(=O)N[C@@H](CC(C)C)C(=O)N[C@@H](CCSC)C(=O)N[C@@H](Cc1c[nH]cn1)C(=O)N[C@@H](CCC(N)=O)C(=O)N[C@@H](CCCNC(=N)N)C(=O)N[C@@H](C)C(=O)N[C@@H](CCCCN)C(=O)N[C@@H](Cc1c[nH]c2ccccc12)C(=O)N[C@@H](CS)C(N)=O [PTH(1-14)] (H-AV[Aib]EIQLMHQRAKWC-NH2) |  |  |  | 3.4 | 4.3 |  | 1.1 | 924 ± 328 | 2.3 ± 1.2 |
